For nine compounds, inhibition results are on record in patent US12479844B2, “Ion channel modulators” (Praxis Precision Medicines, Inc., priority 2018, dated 2025).

A value given as a limit tells only on which side of the number the result lay.

For this assay, the target named is T1, human NaV1.6 (hNaV1.6) (Homo sapiens, UniProt Q9UQD0).
T1 construct: expressed in transfected cells; host or cells: HEK-293
T1 sequence (Q9UQD0 whole entry): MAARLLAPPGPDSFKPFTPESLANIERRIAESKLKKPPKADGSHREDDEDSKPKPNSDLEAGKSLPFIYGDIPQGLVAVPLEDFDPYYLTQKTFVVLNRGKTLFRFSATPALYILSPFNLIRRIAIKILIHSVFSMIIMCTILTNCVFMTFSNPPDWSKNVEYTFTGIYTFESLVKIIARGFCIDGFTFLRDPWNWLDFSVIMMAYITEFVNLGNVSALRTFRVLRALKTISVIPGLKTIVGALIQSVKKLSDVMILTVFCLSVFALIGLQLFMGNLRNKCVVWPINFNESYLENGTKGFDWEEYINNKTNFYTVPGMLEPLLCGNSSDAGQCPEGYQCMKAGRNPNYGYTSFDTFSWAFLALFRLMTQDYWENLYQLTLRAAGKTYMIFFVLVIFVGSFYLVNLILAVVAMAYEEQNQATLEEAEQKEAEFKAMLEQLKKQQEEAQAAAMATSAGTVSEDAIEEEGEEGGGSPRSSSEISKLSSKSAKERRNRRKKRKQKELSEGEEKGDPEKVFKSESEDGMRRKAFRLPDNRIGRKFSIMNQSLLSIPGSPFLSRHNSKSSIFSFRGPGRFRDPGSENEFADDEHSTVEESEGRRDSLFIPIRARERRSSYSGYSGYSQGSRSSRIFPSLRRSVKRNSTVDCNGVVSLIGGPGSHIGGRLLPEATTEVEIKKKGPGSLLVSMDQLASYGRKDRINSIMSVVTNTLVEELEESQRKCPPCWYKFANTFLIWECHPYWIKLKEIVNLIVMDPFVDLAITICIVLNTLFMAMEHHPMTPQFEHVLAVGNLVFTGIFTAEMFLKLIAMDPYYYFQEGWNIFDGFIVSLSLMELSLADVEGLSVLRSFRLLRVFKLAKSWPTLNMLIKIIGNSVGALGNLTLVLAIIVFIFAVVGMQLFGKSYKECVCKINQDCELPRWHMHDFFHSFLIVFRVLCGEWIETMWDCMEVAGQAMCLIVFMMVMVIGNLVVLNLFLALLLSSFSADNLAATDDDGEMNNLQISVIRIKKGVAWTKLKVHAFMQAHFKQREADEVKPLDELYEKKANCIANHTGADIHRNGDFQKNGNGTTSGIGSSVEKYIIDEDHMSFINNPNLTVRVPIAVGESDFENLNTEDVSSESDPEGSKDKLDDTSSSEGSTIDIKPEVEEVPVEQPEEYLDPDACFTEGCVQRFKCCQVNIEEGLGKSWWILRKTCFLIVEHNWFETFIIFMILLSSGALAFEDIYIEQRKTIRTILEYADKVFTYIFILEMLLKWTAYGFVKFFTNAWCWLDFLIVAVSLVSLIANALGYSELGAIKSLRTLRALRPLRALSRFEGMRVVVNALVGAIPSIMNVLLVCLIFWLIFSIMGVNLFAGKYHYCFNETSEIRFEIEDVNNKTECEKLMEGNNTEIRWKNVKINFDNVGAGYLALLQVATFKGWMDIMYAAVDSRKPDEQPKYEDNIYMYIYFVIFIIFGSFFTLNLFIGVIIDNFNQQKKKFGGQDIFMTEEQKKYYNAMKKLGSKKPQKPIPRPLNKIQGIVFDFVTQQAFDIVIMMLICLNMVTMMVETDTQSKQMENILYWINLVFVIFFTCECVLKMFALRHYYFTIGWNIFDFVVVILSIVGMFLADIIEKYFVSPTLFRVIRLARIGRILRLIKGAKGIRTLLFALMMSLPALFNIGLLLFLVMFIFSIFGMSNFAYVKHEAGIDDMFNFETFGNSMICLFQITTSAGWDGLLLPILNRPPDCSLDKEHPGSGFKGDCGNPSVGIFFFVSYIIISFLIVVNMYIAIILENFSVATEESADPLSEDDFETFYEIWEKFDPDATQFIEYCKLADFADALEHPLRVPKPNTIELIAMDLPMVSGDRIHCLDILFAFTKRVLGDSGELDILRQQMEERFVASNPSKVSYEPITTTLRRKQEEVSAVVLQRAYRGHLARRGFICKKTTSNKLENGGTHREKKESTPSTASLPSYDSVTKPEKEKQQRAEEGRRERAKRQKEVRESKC
Briefly: Modulation of late sodium current (INaL), PatchXpress high throughput electrophysiology. Format: cell-based. To be noted: HEK293, HEK-293 cells expressing recombinant human NaV1.6, late current evoked by 300 nM ATX-II, read-out: NaV 1.6 Assay Data (percent inhibition of INaL at hNaV1.6). Here is the method: Functional characterization of exemplary compounds to modulate INaL expressed by the NaV1.6 voltage-gated sodium channel was accomplished using the PatchXpress™ high throughput electrophysiology platform (Molecular Devices, Sunnyvale, CA). HEK-293 cells expressing recombinant, human NaV1.6 (hNaV1.6) were grown in DMEM/high-glucose Dulbecco's modified, 10% FBS, 2 mM sodium pyruvate, 10 mM HEPES and 400 μg/mL G418. Cells were grown to 50%-80% confluency prior to harvesting. Trypsinized cells were washed, allowed to recover for 1 hour and then resuspended in extracellular recording solution at a concentration of 1×10^6 cells/ml. The onboard liquid handling facility of the PatchXpress was used for dispensing cells and applying test compounds. NaV late currents were evoked by the application of 300 nM ATX-II. INaL was evoked by depolarizing pulses to 0 mV for 200 ms from a non-inactivating holding potential (e.g., −120 mV) at a frequency of 0.1 Hz. INaL amplitude and stability were determined by analyzing the mean current amplitude over the final 20 ms of thetest pulse. Following steady state block with exemplary compounds (e.g., as described herein), a Na+ free solution containing an impermeant cation (e.g., Choline or NDMG) was added to confirm the identify of the sodium current. Percent steady-state inhibition of INaL was calculated as: [(INaL_compound)/(INaL_control)]*100, where INaL_compound and INaL_control represent INaL recorded in the presence or absence of compound, respectively.
Turning to `COC(F)(F)c1nnc2cnc(-c3ccc(OC(F)(F)F)cc3COC3CC3)cn12` [Compound 35, 6-[2-(cyclopropoxymethyl)-4-(trifluoromethoxy)phenyl]-3-[difluoro(methoxy)methyl]-[1,2,4]triazolo[4,3-a]pyrazine], the inhibition at 1 µM was in the range of 30 to 70%.
Regarding `CCOC(F)(F)c1nnc2cnc(-c3ccc(OC(F)(F)F)cc3COC3CC3)cn12` [Compound 36, 6-[2-(cyclopropoxymethyl)-4-(trifluoromethoxy)phenyl]-3-[ethoxy(difluoro)methyl]-[1,2,4]triazolo[4,3-a]pyrazine], the inhibition at 1 µM is 30 to 70%.
For `CCOC(F)(F)c1nnc2cnc(-c3ccc(OC4CC(F)(F)C4)cc3)cn12` [Compound 37, 6-[4-(3,3-difluorocyclobutoxy)phenyl]-3-[ethoxy(difluoro)methyl]-[1,2,4]triazolo[4,3-a]pyrazine] the value was more than 70%; for `CCOC(F)(F)c1nnc2cnc(-c3ccc(OC4CC(F)(F)C4)cc3C)cn12` [Compound 38, 6-[4-(3,3-difluorocyclobutoxy)-2-methyl-phenyl]-3-[ethoxy(difluoro)methyl]-[1,2,4]triazolo[4,3-a]pyrazine], more than 70%; for `COC(F)(F)c1nnc2cnc(-c3ccc(OC4CC(F)(F)C4)cc3C)cn12` [Compound 39, 6-[4-(3,3-difluorocyclobutoxy)-2-methyl-phenyl]-3-[difluoro(methoxy)methyl]-[1,2,4]triazolo[4,3-a]pyrazine], 30 to 70%.
For `COC(F)(F)c1nnc2cnc(-c3cc(F)c(OC(F)(F)F)cc3C)cn12` [Compound 40, 3-[difluoro(methoxy)methyl]-6-[5-fluoro-2-methyl-4-(trifluoromethoxy)phenyl]-[1,2,4]triazolo[4,3-a]pyrazine] the value was more than 70%; for `CCOC(C)(C)c1nnc2cnc(-c3ccc(OC(F)(F)F)cc3C)cn12` [Compound 41, 3-(1-ethoxy-1-methyl-ethyl)-6-[2-methyl-4-(trifluoromethoxy)phenyl]-[1,2,4]triazolo[4,3-a]pyrazine], less than 30%; for `COC(F)(F)c1nnc2cnc(-c3cc(C)c(OC(F)(F)F)cc3F)cn12` [Compound 42, 3-[difluoro(methoxy)methyl]-6-[2-fluoro-5-methyl-4-(trifluoromethoxy)phenyl]-[1,2,4]triazolo[4,3-a]pyrazine], more than 70%.
To `COC(F)(F)c1nnc2cnc(-c3c(C)cc(OC(F)(F)F)cc3F)cn12` [Compound 43, 3-[difluoro(methoxy)methyl]-6-[2-fluoro-6-methyl-4-(trifluoromethoxy)phenyl]-[1,2,4]triazolo[4,3-a]pyrazine] belongs 30 to 70%.

As usually defined, the inhibition is the drop in the measured response relative to a control, in per cent.
